The text below walks through data of patent US9969715B2, “Compounds useful for treating cancer” (ABIVAX, priority 2012, dated 2018).

Bounds are passed on as bounds.

One series deals with human PBMC. Kind of series: Toxicity assay under normal cell culture conditions (MTS), PBMC. Format: cell-based. As to conditions: human PBMC, RPMI+10% FBS+IL-2, 72 h incubation, MTS. How it is done: (§1) Toxicity Assays (Under Normal Cell Culture Conditions):
(§2) Compounds were prepared as for the invasion assay, and then added to either MDA-MB231-luc-D3H2LN cells (2000/well) under normal culture conditions (MEM+10% FBS), or human PBMC (75000/well, in RPMI+10% FBS+IL-2) in standard 96-well tissue culture plates. After 72 h incubation, a standard MTS assay was performed according to the manufacturer's instructions (Promega Ref. G3581). Compounds were tested at various concentrations (concentration-response curves) in order to determine the concentrations at which 50% toxicity is obtained.

The subject of series [1] is MDA-MB231-luc-D3H2LN cells. Kind of series: Toxicity assay under normal cell culture conditions (MTS), MDA cells. Format: cell-based, human. As to conditions: MDA-MB231-luc-D3H2LN cells, MEM+10% FBS, 72 h incubation, MTS. Here is the method:
(§3) In order to detect possible toxic effects, all compounds are tested in parallel in a viability assay. The viability assay is performed in parallel on serum-starved cells (as in the invasion assay) vs. cells under normal culture conditions (10% FBS).
as §1, §2

Series [2] has as its system MDA-MB231-luc-D3H2LN cells. Kind of series: Invasion of MDA-MB231-D3H2LN cells into collagen (example 15 = procedure 2, 48 h drug pre-incubation). As to conditions: concentration giving 50% of the anti-invasive effect of 10 μM Y-27632; 48 h pre-incubation, 24 h with 5% FBS; read-out: MDA: Inhib. of invasion: 0.5 × eff. of 10 μM Y-27632 at (μM) av. Format: cell-based. Here is the method: Effect of Drug Compounds on Invasion of MDA-MB231-D3H2LN Cells into Collagen
Preparation of cells at the bottom of a collagen gel: Cells are suspended in a liquid collagen solution (4° C.), distributed into BSA-coated wells, and then collected at the bottom of the wells by centrifugation. The collagen is then solidified by incubation at 37° C. The BSA coating improves the adhesion of the collagen gel.
Pre-treatment with the compounds to be tested: Concentrated drug solutions are then added on top of the collagen, and cells are pre-incubated for 48 h with the drugs at low serum conditions (0.025% FBS).
Stimulation of invasion: Medium with 5% FBS is then added in order to stimulate invasion of the cells into the collagen gel.
(§4) Viability assay, fixation and staining: Following another 24 h incubation, an MTS assay is performed directly on the cells in the collagen. Then, cells are fixed and nuclei are stained.
Analysis: Finally, plates are analyzed using an automated microscope. Fluorescent beads that have been included into the BSA coating serve to detect the bottom of the wells. Pictures of the stained nuclei are taken at the same level (0 μm) as well as 25 μm and 50 μm above.
Negative control: No drug (just DMSO at equivalent concentration). Positive control: 10 μM Y-27632. To avoid edge effects, cells are added only to the 60 central wells B2-G11; lines A and H receive only collagen without cells (blank for the MTS assay) columns 1 and 12 remain free. Each drug is tested at least in triplicate. The positive and negative controls should be tested in several triplicates at different positions on each plate. Typical plate map (−=negative control, +=positive control, 1-12=12 different test conditions, i. e. different drug compounds or concentrations):
Preparation of 4× concentrated drug solutions in MEM+0.1% FBS+2% Lutrol E-400+0.8% DMSO: Mix each 620 μl MEM+0.1% FBS+2% Lutrol E-400 with each 4 μl DMSO+each 1 μl of the 50 mM compound stock solutions (yielding […] and 0.8% DMSO). If the desired final compound concentration is <5 μM, then further dilute in MEM+0.1% FBS+0.8% DMSO. Negative control: MEM+0.1% FBS+2% Lutrol E-400+0.8% DMSO without any drug. Preparation of the positive control: Mix 4.5 ml MEM+0.1% FBS+2% Lutrol E-400+[…] with 36 μl 5 mM Y-27632 (freshly thawed aliquot) (yielding 40 μM).
add each 33 μl/well of the 4× concentrated drug solutions in MEM+0.1% FBS+2% Lutrol E-400+0.8% DMSO to the corresponding wells (yields 1× concentrated drugs in MEM+0.025% FBS+0.5% Lutrol E-400+0.2% DMSO final)
incubate 48 h at 37° C./5% CO2
incubate 24 h at 37° C./5% CO2
for each well, calculate the mean invasion distance of the counted cells: (25 μm×number of cells at 25 μm+50 μm×number cells at 50 μm)/sum of cells at 0, 25 and 50 μm
invalidate any replicate with a CV≥50% (compound to be re-tested, or assay to be repeated if CV≥50% for the untreated negative control or the compound Y-27632-treated positive control). Y27632 is a selective inhibitor of the Rho-associated protein kinase p160ROCK of the following formula
validate the assay only if the mean invasion distance of the cells treated with 10 μM Y-27632 (positive control) is decreased by ≥40% as compared to the untreated negative control
(§5) Final analysis: Determine the concentration at which a given compound has 50% of the anti-invasive effect of the positive control (10 μM Y-27632). Determine the toxicity (=loss of viability) of the compound under these conditions.
Here, invasion (into collagen) is the concentration of the compound necessary to reach 50% of the inhibition effect compared to 10 μM Y-27632.
Standard operating procedure 2 is exactly the same as the procedure as described in example 15.

For the next series, the target named is T1, hERG channel (Homo sapiens, UniProt Q12809).
T1 construct: host or cells: HEK293
The experiment in a line: hERG channel inhibition (electrophysiology, hERG-transfected HEK293 cells). Format: cell-based. How it is done:
Performed by Porsolt & Partners (Z. A. de Glatigné, 53940 Le Genest-Saint-Isle, France). Briefly, each 3 hERG-transfected HEK293 cells were superfused with the compounds at 1 and 10 μM, and the hERG channel current was measured by electrophysiology, as described by Crumb et al., J. Pharmacol. Exp. Ther. 2000.

The subject of series [3] is MDA-MB231-luc-D3H2LN cells. The experiment in a line: Viability (MTS) assay on the cells in collagen under invasion assay conditions. Format: cell-based, human. As to conditions: loss of viability at the concentration giving 0.5 × effect of 10 μM Y-27632, invasion assay conditions. How it is done: as §4, §3
Viability Assay: MTS Assay:
add each 33 μl/well of the MTS reagent, incubate 3-4 h at 37° C./5% CO2
read absorbance at 490 nm (proportional to the viability)
calculate the background-corrected signals by subtracting the means of the background signals in absence of cells from the corresponding signals in presence of cells
normalize the background-corrected signals with respect to the mean signal of the negative controls (no drug) (viabilities are thus expressed in “% of control”)
as §5

T1 sequence (Q12809 whole entry): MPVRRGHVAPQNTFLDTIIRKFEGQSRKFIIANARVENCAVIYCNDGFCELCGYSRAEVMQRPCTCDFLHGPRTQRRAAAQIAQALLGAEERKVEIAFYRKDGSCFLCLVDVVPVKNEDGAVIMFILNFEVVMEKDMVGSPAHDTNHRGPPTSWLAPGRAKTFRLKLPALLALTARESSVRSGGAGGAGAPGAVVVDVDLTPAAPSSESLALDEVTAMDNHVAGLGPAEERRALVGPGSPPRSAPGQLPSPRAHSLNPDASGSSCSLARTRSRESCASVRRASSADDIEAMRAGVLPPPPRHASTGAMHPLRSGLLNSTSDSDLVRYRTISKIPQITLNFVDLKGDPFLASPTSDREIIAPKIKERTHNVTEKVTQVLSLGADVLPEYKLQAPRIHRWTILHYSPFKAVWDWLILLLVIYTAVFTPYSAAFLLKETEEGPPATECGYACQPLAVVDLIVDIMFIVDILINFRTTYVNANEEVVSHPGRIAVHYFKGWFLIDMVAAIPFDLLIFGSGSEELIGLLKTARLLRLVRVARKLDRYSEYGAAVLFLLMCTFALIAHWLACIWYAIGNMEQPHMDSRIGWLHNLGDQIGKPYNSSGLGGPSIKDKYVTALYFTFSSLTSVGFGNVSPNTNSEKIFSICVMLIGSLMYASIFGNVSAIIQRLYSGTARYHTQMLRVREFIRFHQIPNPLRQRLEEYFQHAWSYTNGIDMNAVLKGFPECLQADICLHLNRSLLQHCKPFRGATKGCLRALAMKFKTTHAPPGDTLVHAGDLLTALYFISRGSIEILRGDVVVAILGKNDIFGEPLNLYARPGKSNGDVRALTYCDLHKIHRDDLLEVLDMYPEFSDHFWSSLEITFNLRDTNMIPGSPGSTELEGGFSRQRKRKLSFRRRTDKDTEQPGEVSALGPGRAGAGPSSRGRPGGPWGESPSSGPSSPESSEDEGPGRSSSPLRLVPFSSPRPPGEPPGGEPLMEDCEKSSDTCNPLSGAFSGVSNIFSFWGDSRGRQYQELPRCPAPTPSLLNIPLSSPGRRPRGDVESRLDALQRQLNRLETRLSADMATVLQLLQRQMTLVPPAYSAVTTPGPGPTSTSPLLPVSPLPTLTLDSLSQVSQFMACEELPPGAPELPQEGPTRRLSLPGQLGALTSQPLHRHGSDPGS

As for `CCN(CC)CCCNC(=O)c1cccc(Nc2cccc(C(=O)Nc3ccccn3)c2)c1` [Compound 11, N-(3-(diethylamino)propyl)-3-((3-(pyridin-2-ylcarbamoyl)phenyl)amino)benzamide], in the series on human PBMC, the “PBMC tox.: 50% tox. at (μM) av” value amounted to 47 µM. Further, the “MDA tox: 50% tox. at (μM) av” value in series [1] turned out to be 44 µM. In series [2], the IC50 is > 2 µM. Further, the “% hERG inhibition in transfected HEK (n = 3) at 1 μM av” value at hERG channel (1 μM compound) is listed as 64%. The “% hERG inhibition in transfected HEK (n = 3) at 10 μM av” value at hERG channel (10 μM compound) is given as 87%.

`CN1CCN(CCCNC(=O)c2ccnc(Nc3cccc(C(=O)Nc4ccncc4)c3)c2)CC1` [Compound 34]: the “PBMC tox.: 50% tox. at (μM) av” value with human PBMC was >100 µM. Besides, the “(+ MDA tox. under these cond.) % tox” value in series [3] is <10%. Also, the “MDA tox: 50% tox. at (μM) av” value in series [1] was 98 µM. The IC50 in series [2] is 0.4 µM.

Take `CN1CCN(CCCNC(=O)c2cccc(Nc3cc(C(=O)Nc4ccncc4)ccn3)c2)CC1` [Compound 51, 2-((3-((3-(4-methylpiperazin-1-yl)propyl)carbamoyl)phenyl)amino)-N-(pyridin-4-yl)isonicotinamide]: the “PBMC tox.: 50% tox. at (μM) av” value in the series on human PBMC is >100 µM. Further, the “(+ MDA tox. under these cond.) % tox” value in series [3] is on record as <10%. In addition, the “MDA tox: 50% tox. at (μM) av” value in series [1] was ≥100 µM. For the same compound, the IC50 in series [2] was 0.3 µM.

For the compound `CN1CCN(CCCNC(=O)c2ccnc(Nc3cccc(C(=O)N(C)c4ccncc4)c3)c2)CC1` [Compound 39, 2-((3-(methyl(pyridin-4-yl)carbamoyl)phenyl)amino)-N-(3-(4-methylpiperazin-1-yl)propyl)isonicotinamide], in the series on human PBMC, the “PBMC tox.: 50% tox. at (μM) av” value is 74 µM. For the same compound, the “(+ MDA tox. under these cond.) % tox” value in series [3] is <10%. The “MDA tox: 50% tox. at (μM) av” value in series [1] turned out to be 19 µM. For the same compound, in series [2], the IC50 amounted to 1.45 µM.

Regarding `CCN(CC)CCCNC(=O)c1ccnc(Nc2cccc(C(=O)N(C)c3ccncc3)c2)c1` [Compound 38, N-(3-(diethylamino)propyl)-2-((3-(methyl(pyridin-4-yl)carbamoyl)phenyl)amino)isonicotinamide], in the series with human PBMC, the “PBMC tox.: 50% tox. at (μM) av” value is reported as >>100 μM. For the same compound, the “(+ MDA tox. under these cond.) % tox” value in series [3] was <10%. In addition, in series [1], the “MDA tox: 50% tox. at (μM) av” value was >>100 μM. Besides, the IC50 in series [2] was determined as 3.75 µM.

`CN(C(=O)c1cccc(Nc2cccc(S(=O)(=O)NCCCN3CCCCC3)c2)c1)c1ccncc1` [Compound 24, N-methyl-3-((3-(N-(3-(piperidin-1-yl)propyl)sulfamoyl)phenyl)amino)-N-(pyridin-4-yl)benzamide]: the “PBMC tox.: 50% tox. at (μM) av” value in the series with human PBMC is ≥100 µM. Besides, in series [3], the “(+ MDA tox. under these cond.) % tox” value is <10%. Also, in series [1], the “MDA tox: 50% tox. at (μM) av” value was >100 µM. Also, the IC50 in series [2] is 3.55 µM.

Consider `O=C(Nc1ccncc1)c1ccc(Nc2cccc(S(=O)(=O)NCCCN3CCOCC3)c2)cc1` [Compound 15, 4-((3-(N-(3-morpholinopropyl)sulfamoyl)phenyl)amino)-N-(pyridin-4-yl)benzamide], for which, in the series on human PBMC, the “PBMC tox.: 50% tox. at (μM) av” value came out at 36 µM. Moreover, the “(+ MDA tox. under these cond.) % tox” value in series [3] was <10%. In series [1], the “MDA tox: 50% tox. at (μM) av” value is reported as >>44 μM. In addition, the IC50 in series [2] was found to be 5 µM.

For the compound `CN1CCN(CCCNC(=O)c2ccnc(Nc3cc(C(=O)Nc4ccncc4)ccn3)c2)CC1` [Compound 45, N-(3-(4-methylpiperazin-1-yl)propyl)-2-((4-(pyridin-4-ylcarbamoyl)pyridin-2-yl)amino)isonicotinamide], in the series on human PBMC, the “PBMC tox.: 50% tox. at (μM) av” value was >100 µM. In series [3], the “(+ MDA tox. under these cond.) % tox” value was <10%. The “MDA tox: 50% tox. at (μM) av” value in series [1] is >100 µM. Moreover, in series [2], the IC50 turned out to be 0.38 µM.

Take `CCN(CC)CCCNC(=O)c1cccc(Nc2cccc(C(=O)Nc3ccncn3)c2)c1` [Compound 25, N-(3-(diethylamino)propyl)-3-((3-(pyrimidin-4-ylcarbamoyl)phenyl)amino)benzamide]: the “PBMC tox.: 50% tox. at (μM) av” value in the series on human PBMC was determined as 88 µM. Further, the “(+ MDA tox. under these cond.) % tox” value in series [3] is <10%. Besides, in series [1], the “MDA tox: 50% tox. at (μM) av” value was 46 µM. Moreover, the IC50 in series [2] was < 0.5 µM.

`CN(C(=O)c1cccc(Nc2cccc(C(=O)NCCCN3CCCC3)c2)c1)c1ccncc1` [Compound 18, N-methyl-N-(pyridin-4-yl)-3-((3-((3-(pyrrolidin-1-yl)propyl)carbamoyl)phenyl)amino)benzamide]: in the series with human PBMC, the “PBMC tox.: 50% tox. at (μM) av” value is >100 µM. Besides, in series [3], the “(+ MDA tox. under these cond.) % tox” value is listed as <10%. The “MDA tox: 50% tox. at (μM) av” value in series [1] was >100 µM. For the same compound, the IC50 in series [2] was determined as 3.45 µM.

Turning to `CCN(CC)CCCNC(=O)c1cccc(Nc2cc(C(=O)Nc3ccncc3)ccn2)n1` [Compound 43, N-(3-(diethylamino)propyl)-6-((4-(pyridin-4-ylcarbamoyl)pyridin-2-yl)amino)picolinamide], in the series on human PBMC, the “PBMC tox.: 50% tox. at (μM) av” value was >100 µM. In addition, in series [3], the “(+ MDA tox. under these cond.) % tox” value is recorded as <10%. Moreover, in series [1], the “MDA tox: 50% tox. at (μM) av” value is >100 µM. Further, in series [2], the IC50 was 3.25 µM.

As to `CN(C(=O)c1cccc(Nc2cccc(C(=O)NCCCN3CCOCC3)c2)c1)c1ccncc1` [Compound 22, N-methyl-3-((3-((3-morpholinopropyl)carbamoyl)phenyl)amino)-N-(pyridin-4-yl)benzamide], the “PBMC tox.: 50% tox. at (μM) av” value in the series on human PBMC is >100 µM. In series [3], the “(+ MDA tox. under these cond.) % tox” value is recorded as <10%. Besides, in series [1], the “MDA tox: 50% tox. at (μM) av” value was >100 µM. In series [2], the IC50 amounted to 2.25 µM.
